Target: T1, CFTR in primary human bronchial epithelial cells from a ΔF508 homozygous CF donor (CF-HBE cells) (Homo sapiens, UniProt P13569, DEL508-508)
T1 construct: Primary human bronchial epithelial cells from a ΔF508 homozygous CF donor; host or cells: primary human bronchial epithelial cells (CF-HBE), ΔF508 homozygous donor
Assay: TECC24 recording analysis of CFTR-mediated transepithelial chloride transport (AUC fold over DMSO)
Assay type: cell-based
Settings: 3 μM test agent, CF-HBE cells cultured 48 hours at 36.5° C.; ratio of test agent AUC of forskolin-stimulated IEQ divided by vehicle (DMSO) AUC
Description: Example 31: TECC24 AUC Fold Over DMSO @ 3 μM
The effects of a test agent on CFTR-mediated transepithelial chloride transport was measured using TECC24 recording analysis. Test agents were solubilized in DMSO. Solubilized test agents were mixed with incubation medium containing DMEM/F12, Ultroser G (2%; Crescent Chemical, catalog #67042), Hyclone Fetal Clone II (2%; GE Healthcare, catalog #SH30066.02), bovine brain extract (0.25%; Lonza, catalog #CC-4098), insulin (2.5 μg/mL), IL-13 (10 ng/mL), hydrocortisone (20 nM), transferrin (2.5 μg/mL), triiodothyronine (500 nM), ethanolamine (250 nM), epinephrine (1.5 μM), phosphoethanolamine (250 nM), and retinoic acid (10 nM). Primary human bronchial epithelial cells from a ΔF508 homozygous CF donor (CF-HBE cells; from University of North Carolina Cystic Fibrosis Tissue Procurement Center), grown on Transwell HTS 24-well cell culture inserts (Costar, catalog #3378), were exposed to test agents or controls dissolved in incubation medium. The CF-HBE cells were cultured at 36.5° C. for 48 hours before TECC24 recordings were performed in the presence or absence of test agent, a positive control or vehicle (DMSO).
Following incubation, the transwell cell culture inserts containing the test agent or control-treated CF-HBE cells were loaded onto a TECC24 apparatus (TECC v7 or MTECC v2; EP Design) to record the transepithelial voltage (VT) and resistance (TEER) using 4 AgCl electrodes per well configured in current-clamp mode. The apical and basolateral bath solutions both contained (in mM) 140 NaCl, 5 KCl, 2 CaCl2), 1 MgCl2, 10 Hepes, and 10 glucose (adjusted to pH 7.4 with NaOH). To inhibit basal Na+ absorption, the ENaC inhibitor benzamil (10 μM) was added to the bath. Then, the adenylate cyclase activator, forskolin (10 μM), was added to the bath to activate CFTR. The forskolin-stimulated Cl-transport was halted by addition of bumetanide (20 μM), an inhibitor of the basolateral chloride co-transporter NKCC1, to the bath to confirm that the detected signal was chloride dependent. VT and TEER recordings were digitally acquired at routine intervals using TECC or MTECC software (EP Design). VT and TEER were transformed into equivalent transepithelial Cl-current (IEQ), and the Area Under the Curve (AUC) of the IEQ time course between forskolin and bumetanide addition is generated using Excel (Microsoft). Efficacy is expressed as the ratio of the test agent AUC divided by vehicle AUC. EC50s based on AUC are generated using the non-linear regression log(agonist) vs. response function in Prism software (GraphPad) with Hill Slope fixed=1.
If a test agent increased the AUC of the forskolin-stimulated IEQ relative to vehicle in CF-HBE cells, and this increase was inhibited by bumetanide, then the test agent was considered a CFTR corrector.

T1 sequence (P13569 with tags, fused parts or gaps DEL508-508): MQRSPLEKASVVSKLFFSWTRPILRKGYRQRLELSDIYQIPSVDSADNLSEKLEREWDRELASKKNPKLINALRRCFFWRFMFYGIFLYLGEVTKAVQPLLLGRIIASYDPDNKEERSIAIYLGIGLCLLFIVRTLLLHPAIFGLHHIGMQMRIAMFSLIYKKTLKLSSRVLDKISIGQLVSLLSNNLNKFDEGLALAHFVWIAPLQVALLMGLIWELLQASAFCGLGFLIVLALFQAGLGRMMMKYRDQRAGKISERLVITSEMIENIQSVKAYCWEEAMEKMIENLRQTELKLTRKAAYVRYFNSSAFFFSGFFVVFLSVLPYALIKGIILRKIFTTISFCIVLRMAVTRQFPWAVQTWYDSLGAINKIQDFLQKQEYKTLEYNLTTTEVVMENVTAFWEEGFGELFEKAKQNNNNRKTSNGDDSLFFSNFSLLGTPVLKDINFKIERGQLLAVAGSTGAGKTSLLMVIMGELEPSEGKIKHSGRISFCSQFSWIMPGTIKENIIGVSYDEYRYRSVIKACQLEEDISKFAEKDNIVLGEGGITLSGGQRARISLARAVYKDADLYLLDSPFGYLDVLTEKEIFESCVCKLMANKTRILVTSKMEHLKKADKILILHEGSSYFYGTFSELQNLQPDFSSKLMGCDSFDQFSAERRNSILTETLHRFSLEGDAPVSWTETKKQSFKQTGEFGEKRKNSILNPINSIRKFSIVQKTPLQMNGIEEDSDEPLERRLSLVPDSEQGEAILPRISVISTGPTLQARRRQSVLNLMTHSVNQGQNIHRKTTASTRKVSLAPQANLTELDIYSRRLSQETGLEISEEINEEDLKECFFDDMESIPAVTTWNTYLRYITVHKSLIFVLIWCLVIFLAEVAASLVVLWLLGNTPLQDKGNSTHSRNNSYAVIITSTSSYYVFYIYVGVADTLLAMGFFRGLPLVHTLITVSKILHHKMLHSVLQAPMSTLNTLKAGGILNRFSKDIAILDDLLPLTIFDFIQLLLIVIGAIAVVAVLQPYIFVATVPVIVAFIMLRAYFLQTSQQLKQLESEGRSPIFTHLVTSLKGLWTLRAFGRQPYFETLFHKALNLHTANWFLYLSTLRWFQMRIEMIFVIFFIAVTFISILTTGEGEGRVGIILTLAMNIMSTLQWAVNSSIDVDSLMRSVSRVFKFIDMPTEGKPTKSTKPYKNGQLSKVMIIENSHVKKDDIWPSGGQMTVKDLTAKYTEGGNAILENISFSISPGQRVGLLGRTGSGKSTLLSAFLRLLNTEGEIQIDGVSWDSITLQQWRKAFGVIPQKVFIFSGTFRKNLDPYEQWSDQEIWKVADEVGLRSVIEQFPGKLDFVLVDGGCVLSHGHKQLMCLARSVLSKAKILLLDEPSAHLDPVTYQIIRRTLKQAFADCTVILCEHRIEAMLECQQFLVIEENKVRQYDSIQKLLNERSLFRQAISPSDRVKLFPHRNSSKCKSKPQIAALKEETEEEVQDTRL

Compound	TECC24 AUC vs. DMSO (@3 μM)
CC(C)(C)COc1cc(-c2ccc(NS(=O)(=O)c3cccc(Cl)n3)nc2-c2ccc(C(F)(F)F)cc2)ccc1Cl [Example 12, 6-chloro-N-(5-(4-chloro-3-(neopentyloxy)phenyl)-6-(4-(trifluoromethyl)phenyl)pyridin-2-yl)pyridine-2-sulfonamide]	B (“B” refers to AUC between 2-5)
CC(C)(C)COc1cc(-c2ccc(NS(=O)(=O)c3cccc(N)c3)nc2-c2ccc(C(F)(F)F)cc2)ccc1Cl [Example 17, 3-amino-N-(5-(4-chloro-3-(neopentyloxy)phenyl)-6-(4-(trifluoromethyl)phenyl)pyridin-2-yl)benzenesulfonamide]	C (“C” refers to AUC < 2)
O=S(=O)(Nc1ncc(-c2cccc([C@@H]3CC[C@@H](OC(F)(F)F)C3)c2)c(-c2ccccc2C(F)(F)F)n1)c1ccccc1 (single isomer, unassigned) [Example 28b]	A (“A “refers to AUC > 5)
O=S(=O)(Nc1ncc(-c2cccc([C@H]3CC[C@@H](OC(F)(F)F)C3)c2)c(-c2ccccc2C(F)(F)F)n1)c1ccccc1 (single isomer, unassigned) [Example 27b]	A (“A “refers to AUC > 5)
Cc1cccc(C)c1-c1nc(NS(=O)(=O)c2cn(C)nc2C)cnc1-c1cccc([C@@H]2CC[C@@H](OC(F)(F)F)C2)c1 (single isomer, unassigned) [Example 7b]	B (“B” refers to AUC between 2-5)
Cc1nn(C)cc1S(=O)(=O)Nc1cnc(-c2cccc([C@@H]3CC[C@@H](OC(F)(F)F)C3)c2)c(-c2ccnn2C(C)C)n1 [Example 11, N-(6-(1-isopropyl-1H-pyrazol-5-yl)-5-(3-((1R,3R)-3-(trifluoromethoxy)cyclopentyl)phenyl)pyrazin-2-yl)-1,3-dimethyl-1H-pyrazole-4-sulfonamide]	C (“C” refers to AUC < 2)
Nc1cccc(S(=O)(=O)Nc2ncc(-c3cccc([C@H]4CC[C@@H](OC(F)(F)F)C4)c3)c(-c3ccccc3C(F)(F)F)n2)c1 (single isomer, unassigned) [Example 29a]	B (“B” refers to AUC between 2-5)
CC(C)n1nccc1-c1nc(NS(=O)(=O)c2ccccc2)cnc1-c1cccc([C@@H]2CCC(OC(F)(F)F)C2)c1 (single isomer, unassigned) [Example 10a]	C (“C” refers to AUC < 2)
CC(C)c1ccccc1-c1nc(NS(=O)(=O)c2ccccc2)cnc1-c1cccc([C@@H]2CC[C@@H](OC(F)(F)F)C2)c1 (single isomer, unassigned) [Example 9b]	C (“C” refers to AUC < 2)
CC(C)n1nccc1-c1nc(NS(=O)(=O)c2ccccc2)cnc1-c1cccc([C@@H]2CC[C@@H](OC(F)(F)F)C2)c1 (single isomer, unassigned) [Example 10b]	C (“C” refers to AUC < 2)
CC(C)(C)COc1cc(-c2cnc(NS(=O)(=O)c3cccnc3)nc2-c2ccc(C(F)(F)F)cc2)ccc1Cl [Example 25, N-(5-(4-chloro-3-(neopentyloxy)phenyl)-4-(4-(trifluoromethyl)phenyl)pyrimidin-2-yl)pyridine-3-sulfonamide]	C (“C” refers to AUC < 2)
CC(C)c1ccccc1-c1nc(NS(=O)(=O)c2ccccc2)cnc1-n1ccc(OCC(F)(F)C(C)(C)C)n1 [Example 5, N-(5-(3-(2,2-difluoro-3,3-dimethylbutoxy)-1H-pyrazol-1-yl)-6-(2-isopropylphenyl)pyrazin-2-yl)benzenesulfonamide]	A (“A “refers to AUC > 5)
